Laboratory results: patent US6420416B2, “Method of treating epilepsy” (Daiichi Pharmaceutical Co., Ltd., priority 2000, dated 2002)

Test system: rats subjected to a central fluid percussion injury
Experiment: Morris water maze after central fluid percussion injury (traumatic brain injury model)
Format: in vivo, rat
Experimental: As shown in the graph, administration of nefiracetam at 3 mg/kg and 9 mg/kg were tested against a control group treated only with the pharmacological carrier ([…]). The rats were subjected to a central fluid percussion injury, which is a typical animal model for traumatic brain injury. Beginning one day after the injury, the rats were subjected to daily oral drug administrations at the 3 and 9 mg/kg dosage levels. The administration solutions contained the nefiracetam in […] at a concentration sufficient to provide the required dosage level in a single 1 ml/kg dosage of solution. The rats were then tested in the Morris water maze on days 11-15 after injury. On the days that the rats were tested, the drug was administered 15 minutes prior to testing. […] The improvement seen at the 9 mg/kg dosage correlates to a reduction in the cognitive deficit by 55% compared to the control.

SMILES: Cc1cccc(C)c1NC(=O)CN1CCCC1=O [nefiracetam, N-(2,6-dimethyl-phenyl)-2(2-oxo-1-pyrrolidinyl)acetamide]
- effectiveness in the water maze (3 mg/kg daily oral, days 11-15 after injury): not significantly effective
- reduction in the cognitive deficit compared to the control (9 mg/kg daily oral from one day after injury, Morris water maze on days 11-15 after injury, drug 15 minutes prior to testing): 55%
- improvement in brain function as measured by performance in the water maze (9 mg/kg daily oral, compared to the control and the 3 mg/kg dosage level, days 11-15 after injury): significant improvement
